Measured values taken from PubChem BioAssay (NCI).
Several values for one entry are separate records, joined by “and”; a condition that tells them apart may be missing. Equal entries are not always repeated.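 The compound was tested at five concentrations on cells cultured in 96-well plates, with a 48-hour exposure period. GI50 marks 50% less growth. TGI is the concentration that stops growth completely.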

Columns and labels:
Experiment in all cases: inhibition of tumour cell growth, NCI panel, 48 h
[1] = system: 786-0 renal
[2] = system: A498 renal
[3] = system: CAKI-1 renal
[4] = system: HCT-116 colon
[5] = system: HCT-15 colon
[6] = system: LOX IMVI melanoma
[7] = system: OVCAR-8 ovarian
[8] = system: RPMI-8226 leukemia
[9] = system: SK-MEL-28 melanoma
[10] = system: SNB-75 CNS

Row | SMILES | TGI [1] [µM] | TGI [2] | TGI [3] | TGI [4] | TGI [5] [µM] | TGI [6] [µM] | TGI [7] | TGI [8] | TGI [9] [µM] | TGI [10] | GI50 [1] [µM] | GI50 [2] [µM] | GI50 [3] [µM] | GI50 [4] [µM] | GI50 [5] [µM] | GI50 [6] [µM] | GI50 [7] [µM] | GI50 [8] [µM] | GI50 [9] [µM] | GI50 [10] [µM]
1 | O=C(O)C12C=CC(C1)c1ccccc12 (configuration not stated) | > 100 | > 100 µM | > 100 µM | > 100 µM | > 100 | > 100 | > 100 µM | > 100 µM | > 100 |  |  |  |  |  |  |  |  |  |  | 
2 | Nc1ccccc1SC(/C=C/NNC1=NC(c2ccccc2)C(c2ccccc2)=NN1)c1ccccc1 (configuration not stated) | 25 | 36.8 µM | 26.4 µM |  | 32 | 27.1 | 49 µM | 10.1 µM | 27 | 17.8 µM |  |  |  |  |  |  |  |  |  | 
3 | Fc1ccc(-c2ncn(C3CCNCC3)c2-c2ccnc(Oc3ccc(Cl)cc3)n2)cc1 | 10.8 | 21.4 µM | > 16.7 µM | 7.65 µM | 9.46 | 8.29 | 8.99 µM | 15.3 µM | 7.85 | 14.3 µM | 4.54 | 3.67 | 5.49 | 3.97 | 4.24 | 4.16 | 4.14 | 5.44 | 4.17 | 3.4
4 | O=C1N=C2N=C(c3ccc(Cl)cc3)N(c3ccc(Cl)cc3)N2Sc2ccccc21 | > 100 | > 100 µM | > 100 µM | > 100 µM | > 100 | > 100 | > 100 µM | > 100 µM | > 100 | > 100 µM |  |  |  |  |  |  |  |  |  | 
5 | O=C(Cc1nc2ccccc2s1)C(=O)Nc1cccc(C(F)(F)F)c1 | > 100 | > 100 µM | > 100 µM | > 100 µM | > 100 |  | > 100 µM |  | > 100 | > 100 µM |  |  |  |  |  |  |  |  |  | 
6 | CCCC(=O)Nc1cc(/C=C/C(=O)N2C[C@@H]3C[C@]34C2=CC(=O)c2[nH]cc(C)c24)n(C)c1 |  | 0.689 µM and 0.478 µM | 0.571 µM and 0.529 µM | 8.32 µM and 69.9 µM | 9.89 |  | 0.406 µM and 0.285 µM | 3.72 µM and 0.757 µM | 1.6 | 1.21 µM and 0.248 µM | 0.021 |  | 0.0901 | 0.03 |  | 0.0112 | 0.0447 | 0.193 |  | 0.061
7 | CCCCn1c(-c2ccccc2)cs/c1=N\NC(=O)Cn1c(C)nc2ccccc21 | > 100 | > 100 µM | > 100 µM | > 100 µM | > 100 | > 100 | > 100 µM | > 100 µM |  | > 100 µM |  |  |  |  |  |  |  |  |  | 
8 | CCNC(=O)COc1ccc(Cl)c(C)c1 | > 100 | > 100 µM | > 100 µM | > 100 µM | > 100 | > 100 |  | > 100 µM | > 100 | > 100 µM |  |  |  |  |  |  |  |  |  | 
9 | COc1ccc(OCC(=O)O)c2c1CCC(C)C2=O (configuration not stated) | > 100 | > 100 µM | > 100 µM | > 100 µM | > 100 | > 100 | > 100 µM | > 100 µM | > 100 |  |  |  |  |  |  |  |  |  |  | 
10 | CCNc1ccc2c(c1)C(=O)N(OS(C)(=O)=O)C2=O | > 100 | > 100 µM | > 100 µM | > 100 µM | > 100 | > 100 | > 100 µM | 87.3 µM | > 100 |  |  |  |  |  |  |  |  |  |  | 
